From ChEMBL document CHEMBL3885861, “Open TG-GATES”

Organism: Rattus norvegicus
Experiment: Open TG-GATES - Regimen: Single
Assay type: toxicity, organism-based, Sprague-Dawley
Parameters: regimen Single, gender Male, age 6 weeks
Settings: in vivo, po, route gavage; for TP / gamma-GTP / ALP / ALT / AST / BUN / CRE / DBIL / GLC / K / LDH / Na / PL / RALB / TBIL / TC / TG: tissue Plasma; for APTT / Bas / Eos / Fbg / Hb / Ht / Lym / MCHC / MCV / Mono / PT / Plat / RBC / Ret / WBC: tissue Blood; for KIDNEY_L / KIDNEY_R / KIDNEY_TOTAL: tissue Kidney; for LIVER: tissue Liver
[1] = 0 mg/kg, 24 h, dose level Control
[2] = 600 mg/kg, 24 h, dose level Low

**Q.** What does the source list for `O=C1NC(=O)C(c2ccccc2)(c2ccccc2)N1` [PHENYTOIN]?
**A.** TP [1]: 5.6 g/dL; gamma-GTP [1]: 1 IU/L; TERMINAL_BW (600 mg/kg, 3 h, dose level Low): 210.6 g; APTT (600 mg/kg, 3 h, dose level Low): 16.8 s; Bas (600 mg/kg, 3 h, dose level Low): 0.2%; Eos (600 mg/kg, 3 h, dose level Low): 0.8%; Fbg (600 mg/kg, 3 h, dose level Low): 264.8 mg/dL; Hb (600 mg/kg, 3 h, dose level Low): 13.1 g/dL; Ht (600 mg/kg, 3 h, dose level Low): 39.2%; Lym (600 mg/kg, 3 h, dose level Low): 79%; MCHC (600 mg/kg, 3 h, dose level Low): 33.5%; MCV (600 mg/kg, 3 h, dose level Low): 62.3 fL; Mono (600 mg/kg, 3 h, dose level Low): 2.4%; PT (600 mg/kg, 3 h, dose level Low): 14 s; Plat (600 mg/kg, 3 h, dose level Low): 116 x10_4/uL; RBC (600 mg/kg, 3 h, dose level Low): 629.4 x10_4/ul; Ret (600 mg/kg, 3 h, dose level Low): 8%; KIDNEY_L (600 mg/kg, 3 h, dose level Low): 0.9 g; KIDNEY_R (600 mg/kg, 3 h, dose level Low): 1 g; KIDNEY_TOTAL (600 mg/kg, 3 h, dose level Low): 1.9 g; LIVER (600 mg/kg, 3 h, dose level Low): 8.8 g; ALP (600 mg/kg, 3 h, dose level Low): 1512 IU/L; ALT (600 mg/kg, 3 h, dose level Low): 36.4 IU/L; AST (600 mg/kg, 3 h, dose level Low): 78.6 IU/L; BUN (600 mg/kg, 3 h, dose level Low): 10 mg/dL; CRE (600 mg/kg, 3 h, dose level Low): 0.2 mg/dL; DBIL (600 mg/kg, 3 h, dose level Low): 0.012 mg/dL; GLC (600 mg/kg, 3 h, dose level Low): 186.6 mg/dL; K (600 mg/kg, 3 h, dose level Low): 3.9 meq/L; LDH (600 mg/kg, 3 h, dose level Low): 113.2 IU/L; Na (600 mg/kg, 3 h, dose level Low): 141.8 meq/L; PL (600 mg/kg, 3 h, dose level Low): 143.4 mg/dL; RALB (600 mg/kg, 3 h, dose level Low): 2.5 g/dL; TBIL (600 mg/kg, 3 h, dose level Low): 0.052 mg/dL; TC (600 mg/kg, 3 h, dose level Low): 82 mg/dL; TG (600 mg/kg, 3 h, dose level Low): 36.2 mg/dL; TP (600 mg/kg, 3 h, dose level Low): 5.4 g/dL; gamma-GTP (600 mg/kg, 3 h, dose level Low): 1.2 IU/L; TERMINAL_BW (600 mg/kg, 6 h, dose level Low): 208.2 g; APTT (600 mg/kg, 6 h, dose level Low): 18.6 s; Bas (600 mg/kg, 6 h, dose level Low): 0.4%; Eos (600 mg/kg, 6 h, dose level Low): 0.8%; Fbg (600 mg/kg, 6 h, dose level Low): 274.8 mg/dL; Hb (600 mg/kg, 6 h, dose level Low): 13 g/dL; Ht (600 mg/kg, 6 h, dose level Low): 38.2%; Lym (600 mg/kg, 6 h, dose level Low): 77.6%; MCHC (600 mg/kg, 6 h, dose level Low): 33.9%; MCV (600 mg/kg, 6 h, dose level Low): 61 fL; Mono (600 mg/kg, 6 h, dose level Low): 2.6%; PT (600 mg/kg, 6 h, dose level Low): 14.3 s; RBC (600 mg/kg, 6 h, dose level Low): 626.4 x10_4/ul; Ret (600 mg/kg, 6 h, dose level Low): 7.9%; WBC (600 mg/kg, 6 h, dose level Low): 89.4 x10_2/uL; KIDNEY_L (600 mg/kg, 6 h, dose level Low): 1 g; KIDNEY_R (600 mg/kg, 6 h, dose level Low): 0.9 g; KIDNEY_TOTAL (600 mg/kg, 6 h, dose level Low): 1.9 g; LIVER (600 mg/kg, 6 h, dose level Low): 8.7 g; ALP (600 mg/kg, 6 h, dose level Low): 1510.8 IU/L; ALT (600 mg/kg, 6 h, dose level Low): 30.8 IU/L; AST (600 mg/kg, 6 h, dose level Low): 71.8 IU/L; BUN (600 mg/kg, 6 h, dose level Low): 8.6 mg/dL; CRE (600 mg/kg, 6 h, dose level Low): 0.2 mg/dL; DBIL (600 mg/kg, 6 h, dose level Low): 0.01 mg/dL; GLC (600 mg/kg, 6 h, dose level Low): 181.8 mg/dL; K (600 mg/kg, 6 h, dose level Low): 4.2 meq/L; LDH (600 mg/kg, 6 h, dose level Low): 89 IU/L; Na (600 mg/kg, 6 h, dose level Low): 142.8 meq/L; PL (600 mg/kg, 6 h, dose level Low): 135.6 mg/dL; RALB (600 mg/kg, 6 h, dose level Low): 2.5 g/dL; TBIL (600 mg/kg, 6 h, dose level Low): 0.052 mg/dL; TC (600 mg/kg, 6 h, dose level Low): 74.8 mg/dL; TG (600 mg/kg, 6 h, dose level Low): 26 mg/dL; TP (600 mg/kg, 6 h, dose level Low): 5.3 g/dL; gamma-GTP (600 mg/kg, 6 h, dose level Low): 1.4 IU/L; TERMINAL_BW (600 mg/kg, 9 h, dose level Low): 206.7 g; APTT (600 mg/kg, 9 h, dose level Low): 16 s; Bas (600 mg/kg, 9 h, dose level Low): 0.2%; Eos (600 mg/kg, 9 h, dose level Low): 1%; Fbg (600 mg/kg, 9 h, dose level Low): 288.8 mg/dL; Hb (600 mg/kg, 9 h, dose level Low): 13.3 g/dL; Ht (600 mg/kg, 9 h, dose level Low): 39.5%; Lym (600 mg/kg, 9 h, dose level Low): 73.6%; MCHC (600 mg/kg, 9 h, dose level Low): 33.7%; MCV (600 mg/kg, 9 h, dose level Low): 60.6 fL; Mono (600 mg/kg, 9 h, dose level Low): 2.4%; PT (600 mg/kg, 9 h, dose level Low): 14.3 s; Plat (600 mg/kg, 9 h, dose level Low): 109.6 x10_4/uL; RBC (600 mg/kg, 9 h, dose level Low): 653.4 x10_4/ul; Ret (600 mg/kg, 9 h, dose level Low): 7.3%; WBC (600 mg/kg, 9 h, dose level Low): 74.9 x10_2/uL; KIDNEY_L (600 mg/kg, 9 h, dose level Low): 0.9 g; KIDNEY_R (600 mg/kg, 9 h, dose level Low): 0.9 g; KIDNEY_TOTAL (600 mg/kg, 9 h, dose level Low): 1.8 g; LIVER (600 mg/kg, 9 h, dose level Low): 7.7 g; ALP (600 mg/kg, 9 h, dose level Low): 1491.4 IU/L; ALT (600 mg/kg, 9 h, dose level Low): 29.6 IU/L; AST (600 mg/kg, 9 h, dose level Low): 72.4 IU/L; BUN (600 mg/kg, 9 h, dose level Low): 8.2 mg/dL; CRE (600 mg/kg, 9 h, dose level Low): 0.2 mg/dL; DBIL (600 mg/kg, 9 h, dose level Low): 0.016 mg/dL; GLC (600 mg/kg, 9 h, dose level Low): 186 mg/dL; K (600 mg/kg, 9 h, dose level Low): 4 meq/L; LDH (600 mg/kg, 9 h, dose level Low): 80.8 IU/L; Na (600 mg/kg, 9 h, dose level Low): 141.2 meq/L; PL (600 mg/kg, 9 h, dose level Low): 125.8 mg/dL; RALB (600 mg/kg, 9 h, dose level Low): 2.5 g/dL; TBIL (600 mg/kg, 9 h, dose level Low): 0.064 mg/dL; TC (600 mg/kg, 9 h, dose level Low): 69.6 mg/dL; TG (600 mg/kg, 9 h, dose level Low): 18 mg/dL; TP (600 mg/kg, 9 h, dose level Low): 5.4 g/dL; gamma-GTP (600 mg/kg, 9 h, dose level Low): 1 IU/L; TERMINAL_BW [2]: 217.3 g; APTT [2]: 16.9 s; Bas [2]: 0.2%; Eos [2]: 1.2%; Fbg [2]: 286 mg/dL; Hb [2]: 13.7 g/dL; Ht [2]: 40.1%; Lym [2]: 78.4%; MCHC [2]: 34.2%; MCV [2]: 62.9 fL; Mono [2]: 2.4%; PT [2]: 14.5 s; Plat [2]: 120.7 x10_4/uL; RBC [2]: 637.4 x10_4/ul; Ret [2]: 7.3%; WBC [2]: 101.8 x10_2/uL; KIDNEY_L [2]: 1 g; KIDNEY_R [2]: 1 g; KIDNEY_TOTAL [2]: 1.9 g; LIVER [2]: 9.7 g; ALP [2]: 1621 IU/L; ALT [2]: 34.6 IU/L; AST [2]: 67.6 IU/L; BUN [2]: 14 mg/dL; CRE [2]: 0.2 mg/dL; DBIL [2]: 0.022 mg/dL; GLC [2]: 177.6 mg/dL; K [2]: 4.4 meq/L; LDH [2]: 123.6 IU/L; Na [2]: 141.6 meq/L; PL [2]: 143 mg/dL; RALB [2]: 2.6 g/dL; TBIL [2]: 0.04 mg/dL; TC [2]: 75.4 mg/dL; TG [2]: 95.8 mg/dL; TP [2]: 5.6 g/dL
